Experiment: Warming compositions evaluated by a trained sensory panel (intensity scale 0 to 5)
Settings: flavone glycoside 1 ppm combined with capsicum oleoresin 2 ppm; for Enhancement of the warming effect of capsicum oleoresin: versus capsicum oleoresin 2 ppm alone; for Flavor Intensity: scale 0 to 5 (0=none, 1=minimal, 3=moderate, 5=intense)

Structure (SMILES) | Enhancement of the warming effect of capsicum oleoresin | Flavor Intensity
COc1ccc(-c2cc(=O)c3c(O)cc(OC4OC(COC5OC(C)C(O)C(O)C5O)C(O)C(O)C4O)cc3o2)cc1 (centres unmarked) [Formula V, acacetin 7-O-rutinoside] | enhanced | 3.5
CC1OC(OCC2OC(Oc3cc(O)c4c(=O)cc(-c5ccc(O)c(O)c5)oc4c3)C(O)C(O)C2O)C(O)C(O)C1O (centres unmarked) [Formula IV, luteolin 7-O-rutinoside] | enhanced | 2.5
O=c1cc(-c2ccc(O)cc2)oc2cc(OC3OC(CO)C(O)C(O)C3O)cc(O)c12 (centres unmarked) [Formula II, apigenin 7-O-glucoside] | enhanced | 2.5
COc1ccc(-c2cc(=O)c3c(O)cc(OC4OC(CO)C(O)C(O)C4O)cc3o2)cc1 (centres unmarked) [Formula III, acacetin 7-O-glucoside] | enhanced | 2.5
